Source: US11319324B2, “Pyrazolo-pyrrolo-pyrimidine-dione derivatives as P2X3 inhibitors” (Bayer Aktiengesellschaft, priority 2017, dated 2022)

Experiments:
[1] = clinical trials; affecting taste sensation via the tongue; cited from earlier work
[2] = biological target: T1, human P2X2/3 receptors (Homo sapiens, UniProt P56373+Q9UBL9); assay: Intracellular calcium measurement, antagonist activity at human P2X2/3 receptors (hP2X23 1321N1), Fluo8; type: cell-based; details: for IC50: column 4); 1321N1 cells, human P2X2/3, Fluo8, agonist ATP at EC50; read-out: 4) hP2X2/3 IC50 [nM] (1321N1); for hP2X23/hP2X3* Selectivity (1321N1): ratio of column 4) hP2X2/3 to column 3) hP2X3, 1321N1
T1 construct: expressed in transfected cells; host or cells: human astrocytoma 1321N1 (1312N1 [sic])
T1 sequence (P56373 1-397): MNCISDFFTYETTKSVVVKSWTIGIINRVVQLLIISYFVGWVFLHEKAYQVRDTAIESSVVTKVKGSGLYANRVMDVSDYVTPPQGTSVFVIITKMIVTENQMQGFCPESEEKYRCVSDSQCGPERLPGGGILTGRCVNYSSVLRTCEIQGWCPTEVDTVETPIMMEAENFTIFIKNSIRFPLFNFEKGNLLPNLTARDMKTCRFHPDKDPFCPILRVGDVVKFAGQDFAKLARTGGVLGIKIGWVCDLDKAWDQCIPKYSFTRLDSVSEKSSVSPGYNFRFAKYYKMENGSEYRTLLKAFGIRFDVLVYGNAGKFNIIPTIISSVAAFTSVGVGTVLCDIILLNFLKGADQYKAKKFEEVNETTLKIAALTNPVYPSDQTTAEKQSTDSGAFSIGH
T1 sequence (Q9UBL9 1-471): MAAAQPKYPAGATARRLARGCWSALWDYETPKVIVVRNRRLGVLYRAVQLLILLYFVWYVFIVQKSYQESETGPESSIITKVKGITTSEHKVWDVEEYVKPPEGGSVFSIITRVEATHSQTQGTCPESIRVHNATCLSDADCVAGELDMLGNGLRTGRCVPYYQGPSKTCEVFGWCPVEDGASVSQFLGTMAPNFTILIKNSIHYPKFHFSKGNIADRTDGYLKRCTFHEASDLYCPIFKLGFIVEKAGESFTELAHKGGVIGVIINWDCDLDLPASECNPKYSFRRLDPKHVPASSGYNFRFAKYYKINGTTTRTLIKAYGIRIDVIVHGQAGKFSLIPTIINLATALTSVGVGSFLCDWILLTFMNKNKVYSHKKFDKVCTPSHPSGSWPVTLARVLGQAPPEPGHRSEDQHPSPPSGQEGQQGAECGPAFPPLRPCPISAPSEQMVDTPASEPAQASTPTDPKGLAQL
Method in brief: (§1)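 Antagonism was assessed by decrease of the Fluo8 calcium signal after ATP challenge, with ATP dosed at the EC50 of whichever receptor was tested. Stable 1321N1 astrocytoma lines expressed either human P2X3 or both P2X2 and P2X3, and were dye-loaded 60 min before a 10 min compound incubation.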

[3] = biological target: T2, human P2X3 receptor (Homo sapiens, UniProt P56373); assay: Intracellular calcium measurement to assess antagonist activity at human P2X3 receptors (hP2X3 CHO), photina luminescence; type: cell-based; parameters: expressed in transfected cells; host or cells: Chinese hamster ovary (CHO) cells; details: column 2), CHO cells, agonist α,β-methylene-ATP at EC50
T2 sequence (P56373 1-397): T1 sequence (P56373 1-397)
Method in brief: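 Antagonism read as lowered photina luminescence after agonist stimulation in recombinant hP2X3/photina CHO cells. Cells seeded one day earlier (30 °C) and reconstituted with 5 μg/ml coelenterazine in 2 mM Ca-tyrode buffer for 3 h at 37 °C before measurement.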

[4] = biological target: T2, human P2X3 receptor; assay: Intracellular calcium measurement to assess antagonist activity at human P2X3 receptors (hP2X3 FLIPR); type: cell-based; parameters: expressed in transfected cells; host or cells: human astrocytoma 1321N1 (1312N1 [sic]); details: head prints (1321N1); read-out: 1) hP2X3 IC50 [nM] (1321N1)
Method in brief: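 Human P2X3-expressing […] astrocytoma cells, Fluo-4-loaded, were preincubated with compound 30 min at 37 °C in HBSS/HEPES probenecid buffer (0.5 mM CaCl2, pH 7.4, 1% DMSO final). Agonist-evoked peak fluorescence over 90 s was normalised to DMSO and control wells; IC50 fitted from triplicates.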

[5] = biological target: T2, human P2X3 receptor; assay: Intracellular calcium measurement, antagonist activity at human P2X3 receptors (hP2X3 1321N1), Fluo8; type: cell-based; parameters: expressed in transfected cells; host or cells: human astrocytoma 1321N1 (1312N1 [sic]); details: column 3); 1321N1 cells, human P2X3, Fluo8, agonist ATP at EC50
Method in brief: as §1

| IC50 [2] [nM] | hP2X23/hP2X3* Selectivity (1321N1) [2] | IC50 [3] [nM] | IC50 [4] [nM] | IC50 [5] [nM] | Compound | taste disturbances in treated subjects [1] |
| --- | --- | --- | --- | --- | --- | --- |
|  |  |  |  |  | COc1cc(C(C)C)c(Oc2cnc(N)nc2N)cc1S(N)(=O)=O [AF-219] | leads to taste disturbances |
| 8050 | 11 | 430 | 379 | 740 | Cc1ccc(NC(=O)Cn2c3c(c(=O)n4nc(C(C)(C)C)cc24)CN(C2CCC2)C3=O)nc1 [Example 19] |  |
| 3650 | 76 | 51 | 50 | 48 | CC(C)c1cc2n(CC(=O)Nc3ccc(Cl)cn3)c3c(c(=O)n2n1)CN(C(C)C)C3=O [Example 8] |  |
| > 100000 | >6 | 320 | 100 | > 16600 | CC[C@@H](C)N1Cc2c(n(CC(=O)Nc3ccc(C)cn3)c3cc(C(F)(F)F)nn3c2=O)C1=O [Example 16] |  |
